Tested on: central nervous system of the zebrafish
Assay: dyeing of the central nervous system of juvenile zebrafish after exposure to dye solution, fluorescence/confocal microscope observation over time
Assay type: in vivo
Conditions: 7 dpf juvenile zebrafish; for dyeing of nerve cells of the central nervous system: confocal microscope; for dyed state of the central nervous system (transfer of dyeability with time from nasal cavity via olfactory bulb): left 1 hour, washed, observed at time intervals
Description: Distilled water was added to a 1 mg/mL DMSO solution of compound 1 (as expressed by the formula (5) above) to obtain a dye solution 1 containing the compound 1 to a concentration of 200 ng/mL. 1 mL of the dye solution 1 and a 7-day-old (7 dpf) juvenile fish of zebrafish were put into an arbitrarily selected well of a 24-hole multi plate (available from IWAKI) and left there for an hour. Thereafter, the dye solution 1 in the well was removed and an operation of replacing it with 1 mL of distilled water was repeated three times in ten minutes. The elapsed time after the last solution replacing operation was measured and the juvenile fish was taken out from the well when a predetermined time period had elapsed. The juvenile fish was buried in 5% low melting-point agarose gel on a glass slide to restrict any movement and the dyed state of the central nervous system of the zebrafish was observed from a lateral side and the vertex by using fluorescent microscope (MZ16FA: available from Leica). The central nervous system was observed by means of a confocal microscope (Pascal Exciter: available from Zeiss). After the observation, the zebrafish was returned into the well and repeatedly observed thereafter at regular time intervals. […]

SMILES: CCN1/C(=C\C=C\C2=[N+](CC)c3ccccc3C23CCCCC3)C2(CCCCC2)c2ccccc21 [compound 1]
- dyeing of nerve cells of the central nervous system (dye solution 200 ng/mL): nerve cells of the central nervous system were also dyed
- dyed state of the central nervous system (transfer of dyeability with time from nasal cavity via olfactory bulb) (dye solution 200 ng/mL): firstly the nasal cavity, then the olfactory bulb and finally the central nervous system were sequentially dyed

SMILES: CC/N=c1\cc2oc3cc(NCC)c(C)cc3c(-c3ccccc3C(=O)OCC)c-2cc1C [compound 2]
- dyeing of nerve cells of the central nervous system (dye solution 500 ng/mL): nerve cells of the central nervous system were also dyed
- dyed state of the central nervous system (transfer of dyeability with time from nasal cavity via olfactory bulb) (dye solution 500 ng/mL): firstly the nasal cavity, then the olfactory bulb and finally the central nervous system were sequentially dyed

SMILES: CCN1c2ccc(/C=C/C3=[N+](CC)c4ccc(OC)cc4C34CCCCC4)cc2C2CCCC21 (stereo not drawn) [compound 3]
- dyeing of nerve cells of the central nervous system (dye solution 500 ng/mL): nerve cells of the central nervous system were also dyed
- dyed state of the central nervous system (transfer of dyeability with time from nasal cavity via olfactory bulb) (dye solution 500 ng/mL): firstly the nasal cavity, then the olfactory bulb and finally the central nervous system were sequentially dyed
